Non-standard residues stand in square brackets, D forms with d. Residues, ends and D or L forms follow the SMILES beside them. NMeR = CN[C@@H](CCCNC(=N)N)C(=O)O; Nle = CCCC[C@H](N)C(=O)O

The test system of one assay is MEC-1 cells. Put plainly: MEC-1 cell death (PCD) after 2 h peptide treatment. In kind it is cell-based. Particulars: for Cell Death (MEC-1, 2 h): Table 4; for MEC-1 Cell Death (%) 2 h, [peptides] = 200 μM: Table 3, 200 μM peptide. As to the method: Then the peptides structures were tested via NMR and X-ray. The peptides were also tested for their activity on MEC-1 and their KDs and Retention times on LCMS were determined.

Assay [1] has as its target T1, CD47 (membrane preparation from MEC-1 cells) (Homo sapiens, UniProt Q08722).
T1 construct: MEC-1 cell membrane preparation were biotinylated with the EZ-Link NHS-PEG4-Biotin kit; endogenous in cells; host or cells: MEC-1 cells (membrane preparation)
Put plainly: Binding affinity by biolayer interferometry (Octet RED96) on biotinylated MEC-1 cell membrane preparation. Particulars: NPD = Non Pertinent Data; for Kd(μM)PR: Table 4, N-methyl peptides; for Kd (μM): Table 3, average of two or more measurements. As for the experimental part:
The binding affinities of peptides for a membrane preparation from MEC-1 cells were measured by biolayer interferometry on an Octet RED96 System (Pall FortéBio Corp., Menlo Park, Calif.).
The binding affinities of peptides for a membrane preparation from MEC-1 cells were measured by biolayer interferometry on an Octet RED96 System (Pall FortéBio Corp., Menlo Park, Calif.). This system monitors interference of light reflected from two sources (an internal reflection surface and the liquid/solid interface of a fiber optic sensor) to measure the rate of binding of molecules to the biosensor surface.
MEC-1 cell membrane preparation were biotinylated with the EZ-Link NHS-PEG4-Biotin kit from Thermo-Scientific. Biotinylated membranes were then loaded onto SuperStreptavidin (SSA) biosensors (Pall FortéBio Corp.) at empirically determined concentrations.
In order to highlight the pharmacological properties of these peptides, a systematic SAR study by the development of a binding assay allowing to the assessment of the affinity of the 4N1K analogues to CD47 was initiated. […] An Ala-scan to identify the pharmacophores of 4N1K was implemented.
The binding affinities of peptides for a MEC-1 cells membrane preparation were measured by biolayer interferometry on an Octet RED96 System (Pall FortéBio Corp., Menlo Park, Calif.). This system monitors interference of light reflected from two sources (an internal reflection surface and the liquid/solid interface of a fiber optic sensor) to measure the rate of binding of molecules to the biosensor surface. MEC-1 cells membrane preparation is biotinylated with the EZ-Link NHS-PEG4-Biotin kit from Thermo-Scientific and excess biotin is removed using desalting column from Thermo-Scientific. Biotinylated membranes are then loaded onto SuperStreptavidin (SSA) biosensors (Pall FortéBio Corp.) at empirically determined concentrations. […] Typically, the biosensors were pre-equilibrated in PBS containing either biotinylated membranes or biocytine 100 μg/mL. Biosensors are then equilibrated in assay buffer for 10 min, brought to baseline in assay buffer for 60 sec. and transferred to wells containing peptide in dose-response (association for 120 sec. and dissociation for 300 sec.). The double reference with either membrane-loaded biosensors without any peptide dose-response or biocytine-loaded biosensors with each peptide dose-response were run in parallel for background signal double subtractions. Binding kinetics were calculated using the FortéBio Data Analysis v8.2 software.
A general note: In BLI a coated tip is dipped into the sample, and binding shifts an interference pattern.

T1 sequence (Q08722 19-323): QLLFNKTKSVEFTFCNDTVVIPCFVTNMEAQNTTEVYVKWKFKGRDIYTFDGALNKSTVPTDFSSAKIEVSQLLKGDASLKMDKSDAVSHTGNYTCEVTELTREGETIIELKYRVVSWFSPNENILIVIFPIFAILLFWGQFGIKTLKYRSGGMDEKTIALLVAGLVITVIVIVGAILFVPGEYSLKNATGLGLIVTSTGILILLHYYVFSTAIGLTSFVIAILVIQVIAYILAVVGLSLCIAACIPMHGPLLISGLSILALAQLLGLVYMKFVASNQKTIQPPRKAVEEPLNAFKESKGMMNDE

In the case of `CSCC[C@H](NC(=O)[C@@H](NC(=O)[C@@H](NC(=O)[C@H](Cc1ccc(O)cc1)NC(=O)[C@H](Cc1ccccc1)NC(=O)[C@H](CCCNC(=N)N)N(C)C(=O)[C@H](N)CCCCN)C(C)C)C(C)C)C(=O)N[C@@H](Cc1c[nH]c2ccccc12)C(=O)N[C@@H](CCCCN)C(=O)N[C@H](CCCCN)C(=O)O` [PKT11, H-(D)K ψ(CONMe)R F Y V V M W K (D)K-OH], the “Cell Death (MEC-1, 2 h)” value in the assay with MEC-1 cells was 60%.

With `CSCC[C@H](NC(=O)[C@@H](NC(=O)[C@@H](NC(=O)[C@H](Cc1ccc(O)cc1)NC(=O)[C@H](Cc1ccccc1)NC(=O)[C@H](C)NC(=O)[C@H](N)CCCCN)C(C)C)C(C)C)C(=O)N[C@@H](Cc1c[nH]c2ccccc12)C(=O)N[C@@H](CCCCN)C(=O)N[C@H](CCCCN)C(=O)O` [R2/A, k(A)FYVVMWKk] (H-[dK]AFYVVMWK[dK]-OH), the “MEC-1 Cell Death (%) 2 h, [peptides] = 200 μM” value in the assay on MEC-1 cells came out at 44%.

For the molecule `CSCC[C@H](NC(=O)[C@H](C(C)C)N(C)C(=O)[C@@H](NC(=O)[C@H](Cc1ccc(O)cc1)NC(=O)[C@H](Cc1ccccc1)NC(=O)[C@H](CCCNC(=N)N)NC(=O)[C@H](N)CCCCN)C(C)C)C(=O)N[C@@H](Cc1c[nH]c2ccccc12)C(=O)N[C@@H](CCCCN)C(=O)N[C@H](CCCCN)C(=O)O` [PKT7, H-(D)K R F Y V ψ(CONMe)V M W K (D)K-OH], the “Kd(μM)PR” value in assay [1] was “NPD”. For the same molecule, in the assay with MEC-1 cells, the “Cell Death (MEC-1, 2 h)” value was found to be 0%.

As for `CSCC[C@H](NC(=O)[C@H](C)NC(=O)[C@@H](NC(=O)[C@H](Cc1ccc(O)cc1)NC(=O)[C@H](Cc1ccccc1)NC(=O)[C@H](CCCNC(=N)N)NC(=O)[C@H](N)CCCCN)C(C)C)C(=O)N[C@@H](Cc1c[nH]c2ccccc12)C(=O)N[C@@H](CCCCN)C(=O)N[C@H](CCCCN)C(=O)O` [V6/A, kRFYV(A)MWKk] (H-[dK]RFYVAMWK[dK]-OH; N-terminus and C-terminus assumed), the “Kd (μM)” value in assay [1] is “NPD”. The “MEC-1 Cell Death (%) 2 h, [peptides] = 200 μM” value in the assay with MEC-1 cells was 30%.

As to `CSCC[C@H](NC(=O)[C@@H](NC(=O)[C@@H](NC(=O)[C@H](Cc1ccc(O)cc1)NC(=O)[C@H](Cc1ccccc1)N(C)C(=O)[C@H](CCCNC(=N)N)NC(=O)[C@H](N)CCCCN)C(C)C)C(C)C)C(=O)N[C@@H](Cc1c[nH]c2ccccc12)C(=O)N[C@@H](CCCCN)C(=O)N[C@H](CCCCN)C(=O)O` [PKT10, H-(D)K R ψ(CONMe)F Y V V M W K (D)K-OH], the “Kd(μM)PR” value in assay [1] is listed as “NPD”. Also, the “Cell Death (MEC-1, 2 h)” value with MEC-1 cells came out at 0%.

Turning to “H-(D)K ψ(CONMe)R F Y VV I W K (D)K-OH [PKT18]”, the “Cell Death (MEC-1, 2 h)” value in the assay on MEC-1 cells was 45%.

For `CSCC[C@H](NC(=O)[C@@H](NC(=O)[C@H](C)NC(=O)[C@H](Cc1ccc(O)cc1)NC(=O)[C@H](Cc1ccccc1)NC(=O)[C@H](CCCNC(=N)N)NC(=O)[C@H](N)CCCCN)C(C)C)C(=O)N[C@@H](Cc1c[nH]c2ccccc12)C(=O)N[C@@H](CCCCN)C(=O)N[C@H](CCCCN)C(=O)O` [V5/A, kRFY(A)VMWKk] (H-[dK]RFYAVMWK[dK]-OH; N-terminus and C-terminus assumed), the “Kd (μM)” value in assay [1] is given as “NPD”. For the same molecule, the “MEC-1 Cell Death (%) 2 h, [peptides] = 200 μM” value in the assay on MEC-1 cells came to 12%.

On to `CSCC[C@H](NC(=O)[C@@H](NC(=O)[C@@H](NC(=O)[C@H](Cc1ccc(O)cc1)NC(=O)[C@H](Cc1ccccc1)NC(=O)[C@H](CCCNC(=N)N)NC(=O)[C@H](N)CCCCN)C(C)C)C(C)C)C(=O)N[C@@H](Cc1c[nH]c2ccccc12)C(=O)N[C@@H](C)C(=O)N[C@H](CCCCN)C(=O)O` [K9/A, kRFYVVMW(A)k] (H-[dK]RFYVVMWA[dK]-OH), for which the “MEC-1 Cell Death (%) 2 h, [peptides] = 200 μM” value with MEC-1 cells was 46%.

For `CSCC[C@H](NC(=O)[C@@H](NC(=O)[C@@H](NC(=O)[C@H](Cc1ccc(O)cc1)NC(=O)[C@H](Cc1ccccc1)NC(=O)[C@H](CCCNC(=N)N)NC(=O)[C@H](N)CCCCN)C(C)C)C(C)C)C(=O)N(C)[C@@H](Cc1c[nH]c2ccccc12)C(=O)N[C@@H](CCCCN)C(=O)N[C@H](CCCCN)C(=O)O` [PKT12, H-(D)K R F Y V V M ψ(CONMe)W K (D)K-OH], in assay [1], the “Kd(μM)PR” value is reported as “NPD”. Also, the “Cell Death (MEC-1, 2 h)” value in the assay with MEC-1 cells turned out to be 0%.

As to “H-(D)K R F Y V V M W ψ(CONMe)K (D)K-OH (KRFYVVMWKK; D-residues, N-methyl amide bond; (1)..(1) Amino acid at position 1 is in the D-configuration; (9)..(9) Amino acid at position 9 is backbone-N- …ON of the Lysine; (10)..(10) Amino acid at position 10 is in the D-configuration) [PKT14]”, the “Kd(μM)PR” value in assay [1] is reported as “NPD”. Besides, the “Cell Death (MEC-1, 2 h)” value with MEC-1 cells stood at 35%.

Take `CC(C)C[C@H](NC(=O)[C@@H](NC(=O)[C@@H](NC(=O)[C@H](Cc1ccc(O)cc1)NC(=O)[C@H](Cc1ccccc1)NC(=O)[C@H](CCCNC(=N)N)N(C)C(=O)[C@H](N)CCCCN)C(C)C)C(C)C)C(=O)N[C@@H](Cc1c[nH]c2ccccc12)C(=O)N[C@@H](CCCCN)C(=O)N[C@H](CCCCN)C(=O)O` [PKT17, H-(D)K ψ(CONMe)R F Y V V L W K (D)K-OH] (H-[dK][NMeR]FYVVLWK[dK]-OH): the “Cell Death (MEC-1, 2 h)” value in the assay with MEC-1 cells amounted to 30%.

Take `CCCC[C@H](NC(=O)[C@@H](NC(=O)[C@@H](NC(=O)[C@H](Cc1ccc(O)cc1)NC(=O)[C@H](Cc1ccccc1)NC(=O)[C@H](CCCNC(=N)N)NC(=O)[C@H](N)CCCCN)C(C)C)C(C)C)C(=O)N[C@@H](Cc1c[nH]c2ccccc12)C(=O)N[C@@H](CCCCN)C(=O)N[C@H](CCCCN)C(=O)O` [M/Nle, kRFYVV(Nle)WKk] (H-[dK]RFYVV[Nle]WK[dK]-OH): the “MEC-1 Cell Death (%) 2 h, [peptides] = 200 μM” value in the assay with MEC-1 cells is recorded as 47%.

In the case of “H-(D)K R F Y V V ψ(CONMe)M W K (D)K-OH (KRFYVVMWKK; D-residues, N-methyl amide bond; (1)..(1) Amino acid at position 1 is in the D-configuration; (7)..(7) Amino acid at position 7 is backbone-N- …ON of the Methionine; (10)..(10) Amino acid at position 10 is in the D-configuration) [PKT13]”, the “Kd(μM)PR” value in assay [1] is given as “NPD”. Also, the “Cell Death (MEC-1, 2 h)” value in the assay with MEC-1 cells is listed as 0%.

Take `CSCC[C@H](NC(=O)[C@@H](NC(=O)[C@@H](NC(=O)[C@H](Cc1ccc(O)cc1)NC(=O)[C@H](Cc1ccccc1)NC(=O)[C@H](CCCNC(=N)N)NC(=O)[C@H](CCCCN)NC(C)=O)C(C)C)C(C)C)C(=O)N[C@@H](Cc1c[nH]c2ccccc12)C(=O)N[C@@H](CCCCN)C(=O)N[C@@H](CCCCN)C(N)=O` [compound 2] (Ac-KRFYVVMWKK-NH2): the “MEC-1 Cell Death (%) 2 h” value with MEC-1 cells (Table 2, NPD = Non Pertinent Data) was 30%.

Regarding `CC(C)[C@H](NC(=O)[C@H](Cc1ccc(O)cc1)NC(=O)[C@H](Cc1ccccc1)NC(=O)[C@H](CCCNC(=N)N)NC(=O)[C@H](N)CCCCN)C(=O)N[C@H](C(=O)N[C@@H](C)C(=O)N[C@@H](Cc1c[nH]c2ccccc12)C(=O)N[C@@H](CCCCN)C(=O)N[C@H](CCCCN)C(=O)O)C(C)C` [M7/A, kRFYVV(A)WKk] (H-[dK]RFYVVAWK[dK]-OH; N-terminus and C-terminus assumed), the “MEC-1 Cell Death (%) 2 h, [peptides] = 200 μM” value in the assay on MEC-1 cells was 6%.

With `CSCC[C@H](NC(=O)[C@@H](NC(=O)[C@@H](NC(=O)[C@H](Cc1ccc(O)cc1)NC(=O)[C@H](Cc1ccccc1)NC(=O)[C@H](CCCNC(=N)N)N(C)C(=O)[C@H](N)CCCCN)C(C)C)C(C)C)C(=O)N[C@@H](Cc1c[nH]c2ccccc12)C(=O)N(C)[C@@H](CCCCN)C(=O)N[C@H](CCCCN)C(=O)O` [PKT15, H-(D)K ψ(CONMe)R F Y V V M W ψ(CONMe)K (D)K-OH], the “Cell Death (MEC-1, 2 h)” value in the assay with MEC-1 cells is on record as 10%.

The values above are taken from patent US11759496B2, “Compounds and pharmaceutical use thereof in the treatment of cancer” (priority 2016, dated 2023).
